target: Human immunodeficiency virus type 1 reverse transcriptase (Human immunodeficiency virus 1, UniProt Q72547); test: Inhibition of Human immunodeficiency virus 1 reverse transcriptase

Row | IC50 [nM] | Structure (SMILES)
1 | 20 | COc1cccc(SC2=C(C)C(=O)NC(=O)C2COCCO)c1 (centres undefined)
2 | 375 | CCC1=C(Sc2ccccc2)C(COCC2CCCCC2)C(=S)NC1=O (centres undefined)
3 | 473 | CCC1=C(Sc2ccccc2)C(COCCc2ccccc2)C(=S)NC1=O (centres undefined)
4 | 27 | CC1=C(Sc2cc(Cl)cc(Cl)c2)C(COCCO)C(=O)NC1=O (centres undefined)
5 | 2.2 | CC1=C(Sc2cccc(Cl)c2)C(COCCO)C(=O)NC1=O (centres undefined)
6 | 5.4 | CC1=C(Sc2cccc([N+](=O)[O-])c2)C(COCCO)C(=O)NC1=O (centres undefined)
7 | 54 | Cc1cc(C)cc(SC2=C(C(C)C)C(=O)NC(=O)C2COCCO)c1 (centres undefined)
8 | 31 | CC(C)C1=C(Sc2ccccc2)C(COCCO)C(=O)NC1=O (centres undefined)
9 | 240 | CCC1=C(Sc2ccccc2)C(COC2CCCCC2)C(=S)NC1=O (centres undefined)
10 | 100 | CCOCC1C(=O)NC(=O)C(CC)=C1Sc1ccccc1 (centres undefined)
11 | 422 | CCC1=C(Sc2ccccc2)C(COCc2ccc(C)cc2)C(=S)NC1=O (centres undefined)
12 | 404 | CCC1=C(Sc2ccccc2)C(COCc2ccc(Cl)cc2)C(=S)NC1=O (centres undefined)
13 | 0.52 | CC1=C(Sc2cccc(C(F)(F)F)c2)C(COCCO)C(=O)NC1=O (centres undefined)
14 | 210 | CCOCC1C(=O)NC(=O)C(CC)=C1Sc1cc(C)cc(C)c1 (centres undefined)
15 | 80 | CCC1=C(Sc2cc(C)cc(C)c2)C(COCCO)C(=O)NC1=O (centres undefined)
16 | 137 | CCOCC1C(=S)NC(=O)C(CC)=C1Sc1ccccc1 (centres undefined)
17 | 3.1 | CC1=C(Sc2cccc(Br)c2)C(COCCO)C(=O)NC1=O (centres undefined)
18 | 111 | CC1=C(Sc2ccccc2)C(COCc2ccccc2)C(=O)NC1=O (centres undefined)
19 | 1.7 | CC1=C(Sc2cccc(F)c2)C(COCCO)C(=O)NC1=O (centres undefined)
20 | 24 | CC1=C(Sc2cc(C)cc(C)c2)C(COCCO)C(=O)NC1=O (centres undefined)
21 | 300 | CCOCC1C(=S)NC(=O)C(CC)=C1Sc1cc(C)cc(C)c1 (centres undefined)
22 | 597 | CCOCC1C(=O)NC(=O)C(CC)=C1Sc1cc(Cl)cc(Cl)c1 (centres undefined)
23 | 4 | CC1=C(Sc2cccc(I)c2)C(COCCO)C(=O)NC1=O (centres undefined)
24 | 6.9 | CC1=C(Sc2cccc(O)c2)C(COCCO)C(=O)NC1=O (centres undefined)
